# Key:
# [1] = molecular target: 5-hydroxytryptamine receptor 2C (Homo sapiens) (UniProt P28335); test: Selectivity interaction (GPCR panel (PDSP screen)) EUB0000737a HTR2C; conditions: at 10 µM
# [2] = molecular target: Prostaglandin E2 receptor EP4 subtype (Homo sapiens, UniProt P35408); test: Selectivity interaction (Eurofins-Panlabs radioligand binding assay ) EUB0000293b PTGER4; conditions: at 10 µM
# [3] = molecular target: 5-hydroxytryptamine receptor 3A (Homo sapiens) (UniProt P46098); test: Selectivity interaction (GPCR panel (PDSP screen)) EUB0000293b HTR3A; conditions: at 10 µM
# [4] = molecular target: T1, Muscarinic acetylcholine receptor M2 (Homo sapiens) (UniProt P08172); test: Selectivity interaction (GPCR panel (PDSP screen)) EUB0000333a CHRM2; conditions: at 10 µM
# T1 sequence (whole entry): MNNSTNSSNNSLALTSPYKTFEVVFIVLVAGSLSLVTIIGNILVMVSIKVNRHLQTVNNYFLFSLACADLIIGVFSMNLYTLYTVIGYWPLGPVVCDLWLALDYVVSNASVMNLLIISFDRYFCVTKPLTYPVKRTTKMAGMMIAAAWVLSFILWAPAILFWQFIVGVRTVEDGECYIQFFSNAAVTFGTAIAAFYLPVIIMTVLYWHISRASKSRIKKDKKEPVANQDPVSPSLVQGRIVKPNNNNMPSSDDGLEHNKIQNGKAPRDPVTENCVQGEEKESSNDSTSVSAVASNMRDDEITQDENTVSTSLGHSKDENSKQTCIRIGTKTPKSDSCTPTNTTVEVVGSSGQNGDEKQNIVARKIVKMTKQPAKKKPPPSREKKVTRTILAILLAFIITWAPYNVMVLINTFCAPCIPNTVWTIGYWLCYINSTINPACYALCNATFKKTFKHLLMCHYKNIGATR
# [5] = molecular target: P2Y purinoceptor 2 (Homo sapiens) (UniProt P41231); test: Selectivity interaction (GPCR panel (Eurofins-Cerep)) EUB0000333a P2RY2; conditions: at 10 µM
# [6] = molecular target: Serine/threonine-protein kinase ICK (Homo sapiens) (UniProt Q9UPZ9); test: Selectivity interaction (KinomeScan (DiscoverX)) EUB0000333a ICK; conditions: at 1 µM
# Serine/threonine-protein kinase ICK (Homo sapiens), sequence (Q9UPZ9 whole entry): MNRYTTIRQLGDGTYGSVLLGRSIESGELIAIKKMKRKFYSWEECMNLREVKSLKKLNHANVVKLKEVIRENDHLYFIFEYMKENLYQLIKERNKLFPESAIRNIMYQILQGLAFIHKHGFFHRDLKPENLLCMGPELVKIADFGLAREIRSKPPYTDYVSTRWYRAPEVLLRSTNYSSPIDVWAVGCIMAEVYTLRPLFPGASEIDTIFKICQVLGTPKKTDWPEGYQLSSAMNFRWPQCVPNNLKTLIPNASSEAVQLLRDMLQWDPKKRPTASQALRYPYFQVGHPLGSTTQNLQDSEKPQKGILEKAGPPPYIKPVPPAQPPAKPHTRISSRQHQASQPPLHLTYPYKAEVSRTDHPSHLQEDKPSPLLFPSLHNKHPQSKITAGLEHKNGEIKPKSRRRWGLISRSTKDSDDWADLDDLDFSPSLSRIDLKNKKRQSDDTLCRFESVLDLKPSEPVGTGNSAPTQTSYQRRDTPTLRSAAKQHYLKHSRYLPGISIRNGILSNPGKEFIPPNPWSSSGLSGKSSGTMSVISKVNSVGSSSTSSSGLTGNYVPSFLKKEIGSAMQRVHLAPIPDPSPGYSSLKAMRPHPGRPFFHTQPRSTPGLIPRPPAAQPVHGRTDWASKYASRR
# [7] = molecular target: eIF-2-alpha kinase GCN2 (Homo sapiens) (UniProt Q9P2K8); test: Selectivity interaction (KinomeScan (DiscoverX)) EUB0000333a EIF2AK4; conditions: at 1 µM
# eIF-2-alpha kinase GCN2 (Homo sapiens), sequence (Q9P2K8 whole entry): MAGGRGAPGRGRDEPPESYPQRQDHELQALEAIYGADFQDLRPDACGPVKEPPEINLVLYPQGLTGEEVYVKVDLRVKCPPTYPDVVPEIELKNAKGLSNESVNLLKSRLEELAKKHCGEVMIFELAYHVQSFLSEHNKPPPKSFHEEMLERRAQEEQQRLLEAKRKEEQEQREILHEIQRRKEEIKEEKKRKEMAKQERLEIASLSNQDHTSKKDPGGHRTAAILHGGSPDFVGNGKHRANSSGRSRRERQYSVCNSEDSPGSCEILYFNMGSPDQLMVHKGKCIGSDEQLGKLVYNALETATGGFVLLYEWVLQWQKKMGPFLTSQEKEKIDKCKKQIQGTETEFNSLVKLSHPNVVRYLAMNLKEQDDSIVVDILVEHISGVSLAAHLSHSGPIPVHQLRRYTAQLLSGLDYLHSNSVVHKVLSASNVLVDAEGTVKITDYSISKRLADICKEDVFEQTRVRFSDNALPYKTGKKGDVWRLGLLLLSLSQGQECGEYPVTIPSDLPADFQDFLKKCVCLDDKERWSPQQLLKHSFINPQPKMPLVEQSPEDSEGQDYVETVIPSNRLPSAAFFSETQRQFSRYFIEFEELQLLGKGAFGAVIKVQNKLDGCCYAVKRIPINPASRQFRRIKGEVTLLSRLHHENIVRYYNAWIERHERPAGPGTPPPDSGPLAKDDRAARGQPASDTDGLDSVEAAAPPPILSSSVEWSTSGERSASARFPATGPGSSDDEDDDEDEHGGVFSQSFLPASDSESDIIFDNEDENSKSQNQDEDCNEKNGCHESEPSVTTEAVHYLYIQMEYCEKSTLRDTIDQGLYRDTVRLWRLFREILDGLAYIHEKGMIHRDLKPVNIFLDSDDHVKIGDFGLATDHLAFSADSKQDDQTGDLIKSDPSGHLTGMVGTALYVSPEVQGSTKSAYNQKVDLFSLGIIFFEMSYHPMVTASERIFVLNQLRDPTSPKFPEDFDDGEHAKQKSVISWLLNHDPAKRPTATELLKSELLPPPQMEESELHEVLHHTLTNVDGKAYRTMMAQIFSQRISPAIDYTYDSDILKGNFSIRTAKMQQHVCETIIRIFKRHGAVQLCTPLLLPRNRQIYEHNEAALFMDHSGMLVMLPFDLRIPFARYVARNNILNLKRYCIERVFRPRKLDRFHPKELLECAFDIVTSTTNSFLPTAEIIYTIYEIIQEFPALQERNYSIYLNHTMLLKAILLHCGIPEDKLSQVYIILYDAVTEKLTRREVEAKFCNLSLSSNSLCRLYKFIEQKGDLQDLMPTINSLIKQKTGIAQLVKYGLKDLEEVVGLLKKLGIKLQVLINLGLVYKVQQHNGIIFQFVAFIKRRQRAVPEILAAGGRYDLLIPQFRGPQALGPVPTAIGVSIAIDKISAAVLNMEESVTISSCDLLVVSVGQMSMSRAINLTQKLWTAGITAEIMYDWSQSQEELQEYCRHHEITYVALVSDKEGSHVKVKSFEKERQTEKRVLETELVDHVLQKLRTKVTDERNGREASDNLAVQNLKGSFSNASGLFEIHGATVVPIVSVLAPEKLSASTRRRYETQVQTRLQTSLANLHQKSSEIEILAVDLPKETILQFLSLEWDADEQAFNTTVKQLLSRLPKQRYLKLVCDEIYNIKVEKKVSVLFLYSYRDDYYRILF
# [8] = molecular target: T2, Sigma intracellular receptor 2 (Homo sapiens, UniProt Q5BJF2); test: Selectivity interaction (GPCR panel (PDSP screen)) EUB0000333a TMEM97; conditions: at 10 µM
# T2 sequence (Q5BJF2 whole entry): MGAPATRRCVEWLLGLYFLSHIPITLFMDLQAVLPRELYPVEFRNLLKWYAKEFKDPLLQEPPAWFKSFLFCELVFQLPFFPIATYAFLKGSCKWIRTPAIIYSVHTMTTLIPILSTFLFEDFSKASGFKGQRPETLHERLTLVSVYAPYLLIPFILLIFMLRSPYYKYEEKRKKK
# [9] = molecular target: Serine/threonine-protein kinase SBK1 (Homo sapiens) (UniProt Q52WX2); test: Selectivity interaction (KinomeScan (DiscoverX)) EUB0000708a SBK1; conditions: at 1 µM
# Serine/threonine-protein kinase SBK1 (Homo sapiens), sequence (Q52WX2 whole entry): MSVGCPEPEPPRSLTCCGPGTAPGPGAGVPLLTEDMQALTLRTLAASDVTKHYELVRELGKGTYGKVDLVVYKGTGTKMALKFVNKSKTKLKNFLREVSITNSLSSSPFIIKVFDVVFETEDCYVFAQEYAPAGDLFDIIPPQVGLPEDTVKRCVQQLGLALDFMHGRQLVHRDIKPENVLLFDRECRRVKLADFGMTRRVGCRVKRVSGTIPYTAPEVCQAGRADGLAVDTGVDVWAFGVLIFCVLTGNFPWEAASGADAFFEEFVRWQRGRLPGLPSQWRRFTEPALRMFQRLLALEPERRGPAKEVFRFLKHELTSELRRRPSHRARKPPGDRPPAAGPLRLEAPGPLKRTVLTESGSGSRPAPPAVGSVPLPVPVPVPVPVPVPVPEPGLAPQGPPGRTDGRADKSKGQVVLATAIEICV
# [10] = molecular target: Serine/threonine-protein kinase ULK3 (Homo sapiens) (UniProt Q6PHR2); test: Selectivity interaction (KinomeScan (DiscoverX)) EUB0000708a ULK3; conditions: at 1 µM
# Serine/threonine-protein kinase ULK3 (Homo sapiens), sequence (Q6PHR2 whole entry): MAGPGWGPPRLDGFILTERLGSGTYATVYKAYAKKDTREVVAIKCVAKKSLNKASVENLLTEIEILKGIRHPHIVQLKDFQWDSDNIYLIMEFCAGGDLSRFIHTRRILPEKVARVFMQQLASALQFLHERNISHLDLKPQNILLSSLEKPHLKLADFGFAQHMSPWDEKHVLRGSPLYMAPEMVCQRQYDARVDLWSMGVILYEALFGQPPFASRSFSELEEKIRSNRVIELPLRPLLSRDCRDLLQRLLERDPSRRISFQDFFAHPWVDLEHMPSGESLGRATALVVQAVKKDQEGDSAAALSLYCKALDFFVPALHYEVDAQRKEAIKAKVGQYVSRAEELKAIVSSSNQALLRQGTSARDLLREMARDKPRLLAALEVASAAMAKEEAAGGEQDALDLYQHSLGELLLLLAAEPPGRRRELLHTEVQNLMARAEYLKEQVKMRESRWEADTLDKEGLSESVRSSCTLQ
# Histamine H1 receptor = Histamine H1 receptor (Homo sapiens, UniProt P35367); test: Selectivity interaction (GPCR panel (PDSP screen)) EUB0000251b HRH1; conditions: at 10 µM
# [11] = molecular target: T2, Sigma intracellular receptor 2; test: Selectivity interaction (GPCR panel (PDSP screen)) EUB0000251b TMEM97; conditions: at 10 µM
# [12] = system: Phosphatidylinositol 4,5-bisphosphate 3-kinase catalytic subunit alpha isoform (Homo sapiens), P42336 [E542K]; test: (§1) Selectivity interaction (KinomeScan (DiscoverX)) EUB0000251b PIK3CA; conditions: at 1 µM
# Phosphatidylinositol 4,5-bisphosphate 3-kinase catalytic subunit alpha isoform (Homo sapiens), P42336 [E542K], sequence (P42336 whole entry E542K, canonical isoform): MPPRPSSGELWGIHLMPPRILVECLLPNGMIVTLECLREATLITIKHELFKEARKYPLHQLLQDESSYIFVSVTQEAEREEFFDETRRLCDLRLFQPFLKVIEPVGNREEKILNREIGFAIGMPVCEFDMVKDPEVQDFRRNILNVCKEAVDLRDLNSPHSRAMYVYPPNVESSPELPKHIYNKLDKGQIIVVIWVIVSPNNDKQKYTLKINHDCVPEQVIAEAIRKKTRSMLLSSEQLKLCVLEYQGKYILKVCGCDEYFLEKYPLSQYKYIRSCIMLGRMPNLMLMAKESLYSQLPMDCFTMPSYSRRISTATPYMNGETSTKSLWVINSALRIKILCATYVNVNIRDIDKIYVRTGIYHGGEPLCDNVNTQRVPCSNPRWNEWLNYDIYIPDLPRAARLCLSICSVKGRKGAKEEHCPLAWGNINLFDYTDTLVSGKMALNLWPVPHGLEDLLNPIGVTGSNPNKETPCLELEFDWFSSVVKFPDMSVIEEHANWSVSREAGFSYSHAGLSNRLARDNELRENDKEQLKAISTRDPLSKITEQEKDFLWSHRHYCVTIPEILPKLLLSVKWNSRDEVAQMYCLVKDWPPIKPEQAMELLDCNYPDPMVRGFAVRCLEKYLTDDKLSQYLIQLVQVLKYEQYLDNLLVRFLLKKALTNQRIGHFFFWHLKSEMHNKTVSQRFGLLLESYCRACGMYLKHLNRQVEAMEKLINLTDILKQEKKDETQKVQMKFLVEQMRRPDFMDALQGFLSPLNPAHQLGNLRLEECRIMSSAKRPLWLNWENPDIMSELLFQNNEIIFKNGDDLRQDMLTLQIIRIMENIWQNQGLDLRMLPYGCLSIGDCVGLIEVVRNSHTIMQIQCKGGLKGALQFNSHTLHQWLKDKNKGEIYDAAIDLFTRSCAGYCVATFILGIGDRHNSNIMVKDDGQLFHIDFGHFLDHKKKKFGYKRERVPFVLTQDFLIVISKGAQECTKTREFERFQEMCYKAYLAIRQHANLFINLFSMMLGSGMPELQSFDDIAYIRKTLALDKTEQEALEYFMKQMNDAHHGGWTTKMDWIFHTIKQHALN
# [13] = system: Phosphatidylinositol 4,5-bisphosphate 3-kinase catalytic subunit alpha isoform (Homo sapiens), P42336 [Q546K]; test: as §1; conditions: at 1 µM
# Phosphatidylinositol 4,5-bisphosphate 3-kinase catalytic subunit alpha isoform (Homo sapiens), P42336 [Q546K], sequence (P42336 whole entry Q546K, canonical isoform): as the sequence (P42336 whole entry E542K, canonical isoform) above, with K542E, Q546K counted along it
# [14] = molecular target: 5-hydroxytryptamine receptor 2A (Homo sapiens, UniProt P28223); test: Selectivity interaction (Lead profiling screen (Eurofins, panel of GPCRs, transporters, nuclear receptors, and other enzymes)) EUB0000320b HTR2A; conditions: at 10 µM
# [15] = molecular target: 5-hydroxytryptamine receptor 2B (Homo sapiens, UniProt P41595); test: Selectivity interaction (Lead profiling screen (Eurofins, panel of GPCRs, transporters, nuclear receptors, and other enzymes)) EUB0000320b HTR2B; conditions: at 10 µM
# [16] = molecular target: 5-hydroxytryptamine receptor 2C (Homo sapiens) (UniProt P28335); test: Selectivity interaction (Lead profiling screen (Eurofins, panel of GPCRs, transporters, nuclear receptors, and other enzymes)) EUB0000320b HTR2C; conditions: at 10 µM
# [17] = molecular target: T3, Alpha-1A adrenergic receptor (Homo sapiens) (UniProt P35348); test: Selectivity interaction (Lead profiling screen (Eurofins, panel of GPCRs, transporters, nuclear receptors, and other enzymes)) EUB0000320b ADRA1A; conditions: at 10 µM
# T3 sequence (whole entry): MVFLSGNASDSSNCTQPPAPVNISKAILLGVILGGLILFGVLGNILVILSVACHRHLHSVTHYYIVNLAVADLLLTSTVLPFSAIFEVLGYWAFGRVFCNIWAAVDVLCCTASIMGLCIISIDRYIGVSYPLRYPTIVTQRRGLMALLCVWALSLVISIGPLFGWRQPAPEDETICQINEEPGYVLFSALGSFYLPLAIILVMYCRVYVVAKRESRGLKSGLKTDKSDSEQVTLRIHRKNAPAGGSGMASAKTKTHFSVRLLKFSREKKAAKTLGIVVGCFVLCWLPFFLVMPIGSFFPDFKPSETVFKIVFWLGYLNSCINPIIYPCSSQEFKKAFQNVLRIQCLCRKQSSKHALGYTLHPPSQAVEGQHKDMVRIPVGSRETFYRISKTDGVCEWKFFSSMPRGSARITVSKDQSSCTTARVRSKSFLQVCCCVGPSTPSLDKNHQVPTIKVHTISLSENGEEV
# [18] = molecular target: Kappa-type opioid receptor (Homo sapiens, UniProt P41145); test: Selectivity interaction (Lead profiling screen (Eurofins, panel of GPCRs, transporters, nuclear receptors, and other enzymes)) EUB0000320b OPRK1; conditions: at 10 µM
# [19] = molecular target: Serine/threonine-protein kinase 33 (Homo sapiens, UniProt Q9BYT3); test: Selectivity interaction (KinomeScan (DiscoverX)) EUB0000320b STK33; conditions: at 1 µM
# [20] = molecular target: Casein kinase II subunit alpha' (Homo sapiens) (UniProt P19784); test: Selectivity interaction (Kinase panel (Eurofins)) EUB0000320b CSNK2A2; conditions: at 1 µM
# [21] = molecular target: T4, Myosin-IIIb (Homo sapiens) (UniProt Q8WXR4); test: Selectivity interaction (KinomeScan (DiscoverX)) EUB0000320b MYO3B; conditions: at 1 µM
# T4 sequence (whole entry): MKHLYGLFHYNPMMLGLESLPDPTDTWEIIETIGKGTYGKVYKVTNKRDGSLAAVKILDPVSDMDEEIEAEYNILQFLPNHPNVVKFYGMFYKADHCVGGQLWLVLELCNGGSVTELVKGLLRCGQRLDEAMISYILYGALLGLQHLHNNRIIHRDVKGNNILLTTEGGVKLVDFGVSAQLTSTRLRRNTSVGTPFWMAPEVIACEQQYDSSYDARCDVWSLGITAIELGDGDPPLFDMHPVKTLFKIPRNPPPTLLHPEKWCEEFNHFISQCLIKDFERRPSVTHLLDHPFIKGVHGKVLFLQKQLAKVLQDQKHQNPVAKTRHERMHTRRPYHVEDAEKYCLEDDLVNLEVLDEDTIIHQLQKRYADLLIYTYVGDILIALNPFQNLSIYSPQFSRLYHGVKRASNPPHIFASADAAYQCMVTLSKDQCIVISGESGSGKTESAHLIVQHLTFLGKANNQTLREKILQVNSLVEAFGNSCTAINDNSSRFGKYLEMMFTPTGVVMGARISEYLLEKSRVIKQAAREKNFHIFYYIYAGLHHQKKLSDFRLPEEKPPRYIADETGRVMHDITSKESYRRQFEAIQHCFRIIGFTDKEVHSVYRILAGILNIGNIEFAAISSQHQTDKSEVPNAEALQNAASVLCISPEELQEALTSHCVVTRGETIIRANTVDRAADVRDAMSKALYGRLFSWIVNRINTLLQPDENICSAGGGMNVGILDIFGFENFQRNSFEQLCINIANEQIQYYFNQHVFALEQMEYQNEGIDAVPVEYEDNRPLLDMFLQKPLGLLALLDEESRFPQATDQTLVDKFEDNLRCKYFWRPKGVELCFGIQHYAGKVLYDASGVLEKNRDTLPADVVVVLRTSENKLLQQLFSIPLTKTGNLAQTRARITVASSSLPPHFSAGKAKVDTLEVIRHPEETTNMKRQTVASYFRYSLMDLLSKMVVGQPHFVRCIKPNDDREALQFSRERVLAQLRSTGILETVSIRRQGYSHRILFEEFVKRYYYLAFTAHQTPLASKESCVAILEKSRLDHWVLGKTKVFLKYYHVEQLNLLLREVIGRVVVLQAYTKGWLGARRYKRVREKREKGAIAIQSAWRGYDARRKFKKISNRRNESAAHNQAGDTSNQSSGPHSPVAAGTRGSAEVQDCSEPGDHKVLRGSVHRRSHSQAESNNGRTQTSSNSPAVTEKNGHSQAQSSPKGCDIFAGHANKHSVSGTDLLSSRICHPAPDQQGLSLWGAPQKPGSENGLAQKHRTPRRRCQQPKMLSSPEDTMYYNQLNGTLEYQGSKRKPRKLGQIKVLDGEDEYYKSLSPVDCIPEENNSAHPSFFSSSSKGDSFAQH
# [22] = system: Receptor-type tyrosine-protein kinase FLT3 (Homo sapiens), P36888 [UNDEFINED MUTATION]; test: Selectivity interaction (KinomeScan (DiscoverX)) EUB0000320b FLT3; conditions: at 1 µM
# [23] = molecular target: T5, Cytoplasmic tyrosine-protein kinase BMX (Homo sapiens) (UniProt P51813); test: Selectivity interaction (KinomeScan (DiscoverX)) EUB0000320b BMX; conditions: at 1 µM
# T5 sequence (whole entry): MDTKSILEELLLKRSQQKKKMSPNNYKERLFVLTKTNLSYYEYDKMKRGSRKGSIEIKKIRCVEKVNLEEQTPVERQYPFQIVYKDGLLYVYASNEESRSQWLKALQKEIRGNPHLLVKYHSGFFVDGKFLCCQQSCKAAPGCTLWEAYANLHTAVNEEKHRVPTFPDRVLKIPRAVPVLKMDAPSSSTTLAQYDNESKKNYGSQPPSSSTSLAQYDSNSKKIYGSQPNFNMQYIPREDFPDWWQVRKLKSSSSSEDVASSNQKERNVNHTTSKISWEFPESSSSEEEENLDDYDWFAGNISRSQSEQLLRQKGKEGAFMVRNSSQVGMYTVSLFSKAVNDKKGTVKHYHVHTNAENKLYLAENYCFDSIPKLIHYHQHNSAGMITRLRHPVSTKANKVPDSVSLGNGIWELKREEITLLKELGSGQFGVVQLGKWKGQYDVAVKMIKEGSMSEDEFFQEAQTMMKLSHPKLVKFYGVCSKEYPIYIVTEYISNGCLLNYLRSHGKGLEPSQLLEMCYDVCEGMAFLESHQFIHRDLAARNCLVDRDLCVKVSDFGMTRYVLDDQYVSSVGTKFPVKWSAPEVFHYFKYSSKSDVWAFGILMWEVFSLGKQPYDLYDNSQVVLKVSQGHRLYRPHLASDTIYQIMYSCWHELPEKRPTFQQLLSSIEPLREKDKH
# 5-hydroxytryptamine receptor 2C (Homo sapiens), sequence (P28335 whole entry): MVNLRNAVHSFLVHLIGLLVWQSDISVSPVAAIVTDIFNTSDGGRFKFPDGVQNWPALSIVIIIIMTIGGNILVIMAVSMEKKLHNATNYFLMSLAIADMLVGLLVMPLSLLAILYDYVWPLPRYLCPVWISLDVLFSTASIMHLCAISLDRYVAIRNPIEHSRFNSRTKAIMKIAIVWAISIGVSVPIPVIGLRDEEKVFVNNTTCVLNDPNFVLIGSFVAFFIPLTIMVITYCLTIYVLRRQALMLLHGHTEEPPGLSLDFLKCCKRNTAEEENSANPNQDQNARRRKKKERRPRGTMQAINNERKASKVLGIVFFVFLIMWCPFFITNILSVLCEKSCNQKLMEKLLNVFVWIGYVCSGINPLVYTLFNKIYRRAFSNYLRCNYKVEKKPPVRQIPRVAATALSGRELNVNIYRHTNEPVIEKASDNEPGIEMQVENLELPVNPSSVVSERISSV
structure (smiles),measurement,setting,value
CC(=O)C1=C(C)N(c2cccc(C(F)(F)F)c2)C(=O)N[C@H]1c1ccc(C#N)nc1,% of inhibition,[1],29%
CC1=C(C#N)C(c2ccc3[nH]nc(C)c3c2)C(C#N)=C(C)N1,% of inhibition,[2],19%
same,% of control,[3],33%
Cc1noc([C@H]2C[C@@H](c3ccc(C(F)(F)F)cc3)CN(C(=O)N3CCS(=O)(=O)C3)C2)n1,inhibition,[4],39%
same,inhibition,[5],29%
same,% of control,[6],62%
same,% of control,[7],28%
same,inhibition,[8],42%
Cc1nc(C2CCN(C(=O)c3ccc(OC(F)(F)F)cc3N)CC2)c2ncc(N3CCN(C)CC3)cc2n1,% of control,[9],40%
same,% of control,[10],46%
Cc1c(NC(=O)c2cc(C(N)=O)nc3cc(F)ccc23)c(C(F)(F)F)nn1Cc1ccc(C(C)(C)C)cc1,% of inhibition,Histamine H1 receptor,46%
same,% of inhibition,[11],41%
same,% of control,[12],43%
same,% of control,[13],32%
CNCc1ccccc1-c1csc([C@@H](C)Nc2nc(C)nc3cc(OC)c(OC)cc23)c1,% of inhibition,[14],110%
same,% of inhibition,[15],100%
same,% of inhibition,[16],104%
same,% of inhibition,[17],106%
same,% of inhibition,[18],105%
same,% of control,[19],45%
same,% of control,[20],67%
same,% of control,[21],47%
same,% of control,[22],48%
same,% of control,[23],49%

# Source: ChEMBL document CHEMBL5212743, “Selectivity Literature for EUbOPEN Chemogenomics Library wave 3” (2023)
